Series [1] in a line: Permeability across excised pig cornea (perfusion method, HPLC). The conditions noted are these: for Amount of unchanged product in the receiving compartment (permeability rate): 2.5 mM in donor, GBR pH 7.65, 34-35 °C; for Release of epinephrine inside the eye: conclusion from the excised cornea experiment; for Amount of epinephrine released by 2B223 in the receiving compartment: released by 2B223 (2450 nMoles in donor); for Amount of epinephrine released by 2B852 in the receiving compartment: released by 2B852 (2770 nMoles in donor). Format: in vitro ADME. The method, then: Perfusion method: pig corneas have been removed with about 2 mm of sclera and set on a perfusion cell.
The receiving compartment and that of the donor were respectively filled with 6 ml and 1 ml of GBR solution (Glutathione Bicarbonate Ringer's solution) preheated at 35° C.
During the analysis the cells were maintained at a temperature of 34°-35° C. with a thermostat (REACTI-THERM, Pierce). Besides, the solutions in the 2 compartments were maintained under a flow of 95% O2 --5% CO2 mixture.
The GBR solution in the donor compartment was then substituted with 1 ml of GBR solution saturated with O2 --CO2 containing, 2B223 or 2B852 (2.5 mM).
Aliquots of 600 μl were withdrawn from the receiving compartment every 40 minutes for a period of 4 hours and immediately replaced with an equal volume of GBR.
A solution of GBR with diclofenac (0.1%) maintained at the same conditions (temperature 34°-35° C. and gassed with (O2 --CO2) acted as control aliquots from the control were withdrawn at the same times.
The samples and the controls at various times were immediately analyzed by HPLC.
Solutions: Glutathione Bicarbonate Ringer's (GBR), pH 7.65. The GBR solution was prepared in two parts: part I was composed of sodium chloride 12.4 g/l, potassium chloride 0.716 g/l, sodium dihydrogen phosphate monohydrate 0.206 g/l and sodium bicarbonate 4.908 g/l while part II was composed of calcium chloride 0.230 g/l, magnesium chloride 0.318 g/l, glucose 1.8 g/l and oxidized glutathioine 0.184 g/l. Both parts were stored cold and utilized within two weeks.
Equal volumes of part I and II were mixed prior to use.

The test system of series [2] is Intraocular pressure in rabbit. The series is described as follows: Intraocular pressure in rabbit after topical application. The conditions noted are these: 0.1% solution topical; for Intraocular pressure: individual animal, Hydrochloride; for Intraocular pressure, mean: N=6. In kind it is in vivo.
Series [3] has as its system Ocular Hypertension in Man. As to the kind of experiment: Ocular pressure in patients with non-severe ocular hypertension after instillation. Conditions: one drop 0.1% solution; for Ocular pressure: individual patient, Hydrochloride; for Ocular pressure, mean: N=4. Format: in vivo. The procedure:
1 drop of a 0.1% solution of 2B223 or 2B852, respectively, was instilled into each eye of 8 patients (males) suffering from non-severe ocular hypertension. Ocular pressure was tested at time 0, and 30, 120, 180 minutes after the ocular instillation. At same times blood pressure and heart rate were also tested.

For series [4] the following is noted: applied topically to the eye; stated as known; cited from earlier work.

Each structure is given as a SMILES string. “And” between values parts separate entries of the source, which are not always exact repeats. Equal entries are not always repeated.

In the case of `CNCC(O)c1ccc(OC(=O)N(C)C)c(OC(=O)c2ccc(C)cc2)c1.Cl` (centres unmarked) [2B223, 3-O-(4-Methylbenzoyl)-4-O-(N,N-Dimethylcarbamoyl)adrenaline Hydrochloride], the “Amount of unchanged product in the receiving compartment (permeability rate)” value in series [1] (40 min) was 0.0 nmol; in series [1] (80 min), 1.3 nmol; in series [1] (120 min), 4.1 nmol; in series [1] (160 min), 23.5 nmol. For the same molecule, the “Release of epinephrine inside the eye” value in series [1] is “epinephrine is released inside the eye”. Further, the Intraocular pressure was 12 mm Hg and 13 mm Hg and 11 mm Hg in series [2] (1 hour); 13 mm Hg and 14 mm Hg in series [2] (2 hours); 14 mm Hg and 15 mm Hg and 13 mm Hg in series [2] (4 hours); 15 mm Hg and 16 mm Hg and 14 mm Hg in series [2] (8 hours); 16 mm Hg and 15 mm Hg and 17 mm Hg in series [2] (time 0 (baseline)). Besides, the “Intraocular pressure, mean” value in series [2] (1 hour) is 12.2 mm Hg; in series [2] (2 hours), 13.3 mm Hg; in series [2] (4 hours), 14.2 mm Hg; in series [2] (8 hours), 15.2 mm Hg; in series [2] (time 0 (baseline)) it was 16.0 mm Hg. Besides, the Ocular pressure in series [3] (left eye, 0 min (baseline)) is 26 mmHg and 25 mmHg; in series [3] (left eye, 30 min), 25 mmHg and 23 mmHg; in series [3] (left eye, 120 min), 20 mmHg and 22 mmHg; in series [3] (left eye, 180 min), 22 mmHg and 24 mmHg and 25 mmHg; in series [3] (right eye, 0 min (baseline)) it was 27 mmHg and 24 mmHg and 23 mmHg; in series [3] (right eye, 30 min) it was 24 mmHg and 23 mmHg and 25 mmHg. In addition, the Ocular pressure in series [3] (right eye, 120 min) is 22 mmHg and 21 mmHg and 23 mmHg; in series [3] (right eye, 180 min), 23 mmHg and 22 mmHg and 24 mmHg. The “Ocular pressure, mean” value in series [3] (left eye, 0 min (baseline)) is given as 25.8 mmHg; in series [3] (left eye, 30 min), 24.5 mmHg; in series [3] (left eye, 120 min), 21.5 mmHg; in series [3] (left eye, 180 min) it was 23.8 mmHg; in series [3] (right eye, 0 min (baseline)), 25.3 mmHg; in series [3] (right eye, 30 min) it was 24.0 mmHg. For the same molecule, the “Ocular pressure, mean” value in series [3] (right eye, 120 min) is reported as 22.3 mmHg; in series [3] (right eye, 180 min) it was 23.3 mmHg.
Consider `CNCC(O)c1ccc(OC(=O)N(C)C)c(OC(=O)C(C)C)c1.Cl` (centres unmarked) [2B852, 3-O-Isobutyryl-4-O-(N,N-Dimethylcarbamoyl)adrenaline Hydrochloride], for which the “Amount of unchanged product in the receiving compartment (permeability rate)” value in series [1] (40 min), in series [1] (80 min), in series [1] (120 min) and in series [1] (160 min) was 0.0 nmol each time. Besides, in series [1], the “Release of epinephrine inside the eye” value is listed as “epinephrine is released inside the eye”. Further, the Intraocular pressure in series [2] (1 hour) is 12 mm Hg and 13 mm Hg and 11 mm Hg; in series [2] (2 hours), 13 mm Hg and 14 mm Hg; in series [2] (4 hours), 14 mm Hg and 15 mm Hg; in series [2] (8 hours), 16 mm Hg and 15 mm Hg and 14 mm Hg; in series [2] (time 0 (baseline)), 15 mm Hg and 16 mm Hg. In addition, the “Intraocular pressure, mean” value is on record as 11.8 mm Hg in series [2] (1 hour); 13.5 mm Hg in series [2] (2 hours); 14.3 mm Hg in series [2] (4 hours); 15.3 mm Hg in series [2] (8 hours); 15.7 mm Hg in series [2] (time 0 (baseline)). The Ocular pressure in series [3] (left eye, 0 min (baseline)) was 27 mmHg and 26 mmHg; in series [3] (left eye, 30 min), 26 mmHg and 24 mmHg and 25 mmHg; in series [3] (left eye, 120 min) it was 24 mmHg and 22 mmHg and 25 mmHg; in series [3] (left eye, 180 min), 23 mmHg and 25 mmHg; in series [3] (right eye, 0 min (baseline)), 26 mmHg and 25 mmHg and 24 mmHg and 28 mmHg; in series [3] (right eye, 30 min), 25 mmHg and 24 mmHg and 23 mmHg and 26 mmHg. The Ocular pressure was 23 mmHg and 22 mmHg and 24 mmHg in series [3] (right eye, 120 min); 25 mmHg and 22 mmHg and 23 mmHg and 24 mmHg in series [3] (right eye, 180 min). The “Ocular pressure, mean” value in series [3] (left eye, 0 min (baseline)) came to 26.5 mmHg; in series [3] (left eye, 30 min), 25.3 mmHg; in series [3] (left eye, 120 min) it was 23.8 mmHg; in series [3] (left eye, 180 min), 23.8 mmHg; in series [3] (right eye, 0 min (baseline)) it was 25.8 mmHg; in series [3] (right eye, 30 min) it was 24.0 mmHg. For the same molecule, the “Ocular pressure, mean” value in series [3] (right eye, 120 min) worked out at 23.0 mmHg; in series [3] (right eye, 180 min) it was 23.5 mmHg.
Consider `CNC[C@H](O)c1ccc(O)c(O)c1` [EPINEPHRINE, epinephrine, reference compound], for which the “Amount of epinephrine released by 2B223 in the receiving compartment” value came out at 15.8 nmol in series [1] (40 min), 21.7 nmol in series [1] (80 min), 23.4 nmol in series [1] (120 min) and 26.2 nmol in series [1] (160 min). The “Amount of epinephrine released by 2B852 in the receiving compartment” value came to 14.5 nmol in series [1] (40 min), 23.7 nmol in series [1] (80 min), 28.9 nmol in series [1] (120 min) and 32.0 nmol in series [1] (160 min). Besides, in series [4], the “Permeation of cornea barrier” value is listed as “does not permeate cornea barrier”.
